Measurements from BindingDB's records for doi:10.1021/jm00352a017 (1983).

Assays:
[1] = Inhibition of rat kidney pyruvate kinase (PK-K) at 6.7 mM
[2] = Michaelis-Menten constant for inhibition of rat kidney pyruvate kinase (PK-K)
[3] = Inhibition of rat kidney pyruvate kinase (PK-K)
[4] = Inhibition of rat liver pyruvate kinase (PK-L) at 3.6 mM

| Ki [3] | Structure (SMILES) | also measured |
| --- | --- | --- |
| 2.9 mM | CCNc1nc2c(N)ncnc2n1C1O[C@H](COP(=O)(O)OP(=O)(O)O)[C@@H](O)[C@H]1O (stereo partly specified) | – |
| 5 mM | CSc1nc2c(N)ncnc2n1C1O[C@H](COP(=O)(O)OP(=O)(O)O)[C@@H](O)[C@H]1O (stereo partly specified) | – |
| 3.9 mM | CCSc1nc2c(N)ncnc2n1C1O[C@H](COP(=O)(O)OP(=O)(O)O)[C@@H](O)[C@H]1O (stereo partly specified) | – |

The next lines start with the compound.

| Structure (SMILES) | Ki [3] | also measured |
| --- | --- | --- |
| C[C@@H](OP(=O)(O)OP(=O)(O)O)[C@H]1OC(n2cnc3c(N)ncnc32)[C@H](O)[C@@H]1O (stereo partly specified) | – | Ki [1]: 10.9 mM; Ki [2]: 8 mM |
| CO[C@H]1[C@@H](O)[C@H](n2cnc3c(N)ncnc32)O[C@@H]1COP(=O)(O)OP(=O)(O)O [[5-(6-amino-9H-purin-9-yl)-4-hydroxy-3-methoxytetrahydrofuran-2-yl]methyl trihydrogen diphosphate] | – | Ki [4]: 7 mM |
